We go through one molecule from patent US20200078408A1, “GENE THERAPY” (Ospedale San Raffaele S.r.l., priority 2017, published 2020).

For one data set, the system named is B-ALL. In words: B-ALL challenge of mice reconstituted with Tie2-vector transduced HSPCs (Example 7). It counts as in vivo, mouse. Particulars: FIG. 31A. The source says: We employed a transplantable model of B-acute lymphoblastic leukaemia (B-ALL) closely mimicking human Philadelphia-like B-ALL (Nucera, S. et al. (2016) Cancer Cell 29: 905-921), which readily induces a protumoral, immunosuppressive microenvironment characterised, for example, by the appearance of myeloid-derived suppressor cells, downregulation of MHC class II genes and upregulation of IL10 and PD1.
Eight weeks post transplant, upon reconstitution of the peripheral blood, animals received the B-ALL that is then followed by frequent blood collection. […]
We then combined the contemporaneous delivery of several immunostimulatory cytokines into the leukaemia microenvironment using the Tie2 vector backbone equipped with different transgene cargo. […] Vector copy number of the single vectors measured by specific quantitative PCR assays was rather low ranging from 0.1 to 0.3 in the reconstituted mice. […]
Furthermore, we evaluated the potential synergy of our gene therapy-based delivery of IFNy with other immunotherapeutic strategies including checkpoint inhibitors anti-CTLA-4 and anti-LAG-3 and the inhibitor of the IDO enzyme, 1-Methyl-Tryptophan (1-MT). […] Vector copy number of the single vectors measured by specific quantitative PCR assays was 0,72 for the Tig126/130a and 0,84 for the controls in the reconstituted mice. […]

For data set [1], the system named is macrophages, myeloid-derived suppressor cells, CD8+ T cells. In words: tumour microenvironment readouts at sacrifice in the B-ALL model (Example 7). The settings on record: combined with gene therapy-based delivery of IFNγ (Tig126/130a). It counts as in vivo, mouse.

Molecules are shown by their SMILES.

On to `Cn1cc(CC(N)C(=O)O)c2ccccc21` (stereo not shown) [1-MT, 1-Methyltryptophan], for which the disease progression entry with B-ALL (combined with gene therapy-based delivery of IFNγ (Tig126/130a)) is “reduction of the disease progression”. Further, in the data set with B-ALL (monotherapy), the B-ALL progression result is on record as “no beneficial effect”. Also, in data set [1] (FIG. 31), the “MHC class II expression on splenic and bone marrow macrophages” value is listed as “significant increase”. Also, in data set [1] (FIG. 31D), the “cytotoxic CD8+ T cells in the spleen” value was “increase”.
